Patent EP2201946A1, “PAI-1 PRODUCTION INHIBITOR” (Institute of Medicinal Molecular Design, Inc., priority 2007, dated 2009)

Assays:
[1] = system: TGF-β induced PAI-1 production; assay: TGF-β induced PAI-1 production in HT1080 cells (Western blotting); assay type: cell-based; details: TGF-β1 10 ng/mL, 6-hours incubation
Method: After incubating HT1080 cells for 48 hours in the MEM medium containing 10%FBS (Fetal Bovine Serum), the medium was changed to a MEM medium containing 1% FBS, and TGF-β1 (final concentration: 10 ng/mL) only, or TGF-β1 (final concentration: 10 ng/mL) and the test substances were added and incubated. As a control, a culture solution without neither TGF-β1 nor the test substances was prepared. After 6-hours incubation, the culture fluids were collected, and the PAI-1 amounts in the culture fluids were measured by the Western blotting. The PAI-1 amount when TGF-β1 only was added being "100%," and the PAI-1 amount in the control being "0%," PAI-1 I amounts at each concentration of the test substances (PAI-1 inhibition ratios) were calculated, and the concentrations of the compounds, which inhibited PAI-1 production to 50% (IC50) in amount, were obtained.

[2] = system: TGF-β induced PAI-1 production; assay: TGF-β induced PAI-1 production in HepG2 cells (Human Serpin E1/PAI-1 DuoSet); assay type: cell-based; details: Compound Concentration : 1μM, TGF-β1 1ng/mL, 24 hours
Method: HepG2 cells were seeded on a 96-well culture plate by 2x10^4 cells/well, and were incubated for 24 hours in the MEM medium containing 1% NEAA (Non-Essential Amino Acids), 1mM pyruvate, and 10% FBS. Then, the medium was changed to a MEM medium containing 1% NEAA, 1mM pyruvate and 1% FBS, and the cells were further incubated for 24 hours. Subsequently, after the medium was changed to a MEM medium containing 1% NEAA, 1mM pyruvate and 1% FBS, and then the cells were treated with the test substances (final concentration: 1 µM or 0.1 µM) for one hour, TGF-β1 (final concentration.1ng/mL) was added and the cells were further incubated for 24 hours. As controls, a culture solution added TGF-β1 only and a culture solution cultured without neither the test substances nor TGF-β1 were prepared. After the incubation, the PAI-1 amount was measured using Human Serpin E1/PAI-1 DuoSet (R&D Systems). The PAI-1 amount when treated with TGF-β1 only being "100%", and the PAI-1 amount when treated without neither the test substances nor TGF-β1 being "0%", the PAI-1 inhibition ratios of each test substance were calculated. IC50 of the compound (2) was about 50 nM.

[3] = system: Chronic Obstructive Pulmonary Disease (COPD) model; assay: Collagen accumulation in alveoli of guinea pigs exposed to cigarette smoke (Masson-trichrome, image analysis); assay type: in vivo; details: smoke of 40 cigarettes a day for 25 days, oral once a day for 25 days, compound (1) 30 or 100 mg/kg/day, prednisolone 10 mg/kg/day (Fig. 2)
Method: Using the smoking exposure system (INH06-CIG01A, MIPS Inc.), 6-week old guinea pigs (Std: male Hartley, Japan SLC, Inc.) were exposed to smoke of 40 cigarettes (Peace (Registered Trademark), Japan Tobacco, Inc.) a day (20 cigarettes twice) for 25 continuous days (Chronic Obstructive Pulmonary Disease (COPD) model group: Control group: n=10). To theseguinea pigs, from the day of exposure to the smoke of tobacco, the compound (1) (30 mg/kg/day or 100 mg/kg/day) or prednisolone (10 mg/kg/day) was continuously administered orally once a day for 25 days (Compound (1) 30 mg administered group: n=5, Compound (1) 100 mg administered group: n=5, Prednisolone administered group: n=5). Furthermore, as a normal group, guinea pigs (n=5) exposed to air without the administration of the compound (1) and prednisolone were prepared. On the following day of the last exposure, after preparing paraffin sections in the lungs of each guinea pig, collagen was stained by the Masson-trichrome method, and the accumulations of collagen in the alveoli were measured by the area rate with the image analysis. […] Next, the above paraffin section was stained by the immunostaining method using an anti PAI-1 antibody (PAI-1 H-135; Santa Cruz; 250-fold dilution), and the ratio of PAI-1 expression cells to the total cell numbers infiltrated in the lung was measured. […]

Row | Compound | IC50 [1] [nM] | Inhibition Ratio (%) [2] [%] | accumulation of collagen in the alveoli (area rate) [3]
1 | O=C(Nc1cc(C(F)(F)F)ccc1C(F)(F)F)c1cc(Br)ccc1O [(3)] | 83 | >90 | –
2 | C[C@]12C=CC(=O)C=C1CC[C@@H]1[C@@H]2[C@@H](O)C[C@@]2(C)[C@H]1CC[C@]2(O)C(=O)CO [prednisolone] | – | – | not able to inhibit the accumulation of collagen
